Experiment [1] concerns the target T1, vesamicol receptors (Rattus norvegicus, UniProt Q62666).
T1 sequence (Q62666 1-530): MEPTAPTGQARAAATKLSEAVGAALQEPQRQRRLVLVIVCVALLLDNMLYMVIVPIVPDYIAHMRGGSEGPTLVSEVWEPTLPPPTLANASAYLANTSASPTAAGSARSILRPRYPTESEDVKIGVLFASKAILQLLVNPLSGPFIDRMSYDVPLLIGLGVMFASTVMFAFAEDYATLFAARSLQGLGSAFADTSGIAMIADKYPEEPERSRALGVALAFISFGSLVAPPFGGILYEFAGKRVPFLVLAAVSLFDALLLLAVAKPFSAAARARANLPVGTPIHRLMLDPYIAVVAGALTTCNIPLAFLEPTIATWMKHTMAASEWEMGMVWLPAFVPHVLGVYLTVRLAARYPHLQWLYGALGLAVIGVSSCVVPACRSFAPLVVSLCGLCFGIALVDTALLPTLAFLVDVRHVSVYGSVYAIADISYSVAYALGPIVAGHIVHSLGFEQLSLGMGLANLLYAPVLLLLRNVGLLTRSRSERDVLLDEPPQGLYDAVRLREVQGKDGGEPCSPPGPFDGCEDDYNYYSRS
As to the kind of experiment: Inhibition experiment: inhibition of binding of radioactive-iodine-labeled DRC140 to P2 fractions. Also noted: Synaptic vesicles were extracted and separated from the brain of a rat; from tissue; host or cells: rat brain without cerebellum: P2, crude synaptic vesicles, purified synaptic vesicles.

Experiment [2] concerns the target T1, vesamicol receptors. As to the kind of experiment: Receptor binding test: inhibition of I-125 labeled 5-iodobenzo vesamicol binding to brain homogenate. Set-up: from tissue; host or cells: rat brain without cerebellum, P2 fraction; species or system Male Wistar rats. As to conditions: Inhibitive concentration at 50% (IC50), Vesamicol receptor, Table 5; incubated three hours at 37°C; no unit printed in table (b19 gives nM for DRC140). Here is the method:
(§1) Properties relating to binding of the vesamicol piperazine derivatives of the present invention to various receptors were examined as follows. Specifically, ligands which combine with each receptor were incubated together with homogenates prepared as follows.
To measure affinity of vesamicol receptors, I-125 labeled 5-iodobenzo vesamicol (synthesized and labeled according to Jung et al., J. Med. Chem. 33, 2065-2068, 1990) was added to a brain homogenate prepared as follows. The vesamicol piperazine derivatives synthesized in the Examples were added at various concentrations. The mixture was then incubated for three hours at 37°C.
(§2) B (%) =((1 0 0 × [U])^(∩))/([ I C50 (])^(∩) (+ [U])^(∩)) [formula] wherein B(%) is the proportion of specific binding in the total binding, n indicates a Hill coefficient, and U is the concentration of unbound ligand.
Male Wistar rats were anesthetized with ether and were decapitated. The brains were immediately extracted. The cerebella were removed from the brains. 0.32 M sucrose (containing 4 mM HEPES (pH 7.4)) in an amount of five times the wet amount (weight) of this sample was added. The sample was homogenized by a potter-type homogenizer for 12 strokes while cooling with ice. 0.32 M sucrose in the same amount as the homogenate (total: 10 times the wet amount of the original sample) was added. The suspension thus obtained was centrifuged for 5 minutes at 1,000 x g. The precipitate was removed. The supernatant liquid was centrifuged at 9,200 x g for 15 minutes to separate the precipitate from the supernatant liquid. P2 fractions were suspended in a Tris-HCl buffer (pH 7.4) for binding experiments and stored at -80°C until the start of the binding experiment.

A further experiment concerns the target T2, sigma receptors (Cavia porcellus, UniProt Q60492).
T2 construct: The brain was immediately extracted; The cerebellum was removed from the brain; from tissue; host or cells: guinea pig brain without cerebellum, membrane pellet
The experiment in a line: Receptor binding test: inhibition of tritium-labeled (+) pentazocine binding to brain homogenate. Also noted: species or system male guinea pig. The procedure: as §1
To measure affinity to sigma receptors, tritium-labeled (+) pentazocine was added to a brain homogenate prepared as follows. The vesamicol piperazine derivatives synthesized in the Examples were added at various concentrations, and the mixture was incubated for two hours at room temperature.
as §2
A male guinea pig was anesthetized with ether and was decapitated. The brain was immediately extracted. The cerebellum was removed from the brain. 10 mM Tris-sucrose buffer solution (0.32 M sucrose + 10 mM Tris-HCl (pH 7.4)) was added in the amount of 10 ml/g of the tissue. The mixture was homogenized by a potter-type homogenizer for 6-10 strokes. The homogenate was centrifuged at 1,000 x g for 10 minutes at 4°C and the supernatant liquid was collected. The resulting pellets were suspended in the Tris-sucrose buffer solution at the concentration of 2 ml/g, followed by centrifugation at 1,000 x g for 10 minutes at 4°C. The supernatant liquids obtained by the two centrifugation at 1,000 x g were combined and centrifuged at 31,000 x g for 15 minutes at 4°C. The resulting pellets were suspended in a 10 mM Tris-HCl buffer solution (pH 7.4) at a concentration of 3 ml/g of tissue and incubated for 30 minutes at 25°C. After incubation, the suspension was centrifuged at 31,000 x g for 15 minutes at 4°C. The pellets obtained were suspended in a 10 mM Tris-HCl buffer solution (pH 7.4) to make a final concentration of 1.53 ml/g of tissue. The suspension was homogenized by a potter-type homogenizer for 5 strokes. The homogenate was stored at -80°C until the start of the experiment.

The mark [3] stands for this setting: inhibitive concentration at 50% (IC50), Receptor Vesamicol.
[4] abbreviates: Inhibitive concentration at 50% (IC50), Sigma α-1 receptor.
Setting [5] is: inhibitive concentration at 50% (IC50), Receptor Sigma-1.
[6] abbreviates: Table 7, P2 fractions, inhibition of radioactive-iodine-labeled DRC140 binding, Binding site names the inhibitor's own site, read-out: IC50 (nM) Average ± S.D.

In patent EP1205473A1, “VESAMICOL PIPERAZINE DERIVATIVES AND DRUGS CONTAINING THE SAME” (DAIICHI RADIOISOTOPE LABORATORIES, LTD., priority 1999, dated 2001) one finds IC50 data, which are given here for 24 molecules.

T2 sequence (Q60492 whole entry): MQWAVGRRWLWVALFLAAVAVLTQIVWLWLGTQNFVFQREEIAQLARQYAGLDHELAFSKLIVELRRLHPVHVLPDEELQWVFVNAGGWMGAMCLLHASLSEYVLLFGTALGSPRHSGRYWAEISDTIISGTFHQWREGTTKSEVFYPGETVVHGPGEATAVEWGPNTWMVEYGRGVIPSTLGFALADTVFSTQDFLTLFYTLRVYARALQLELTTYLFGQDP

On to “5-iodobenzovesamicol [(+)-IBVM, reference compound]”, for which the IC50 at vesamicol receptors [1] (read-out: inhibitive concentration at 50% (IC50), Receptor Vesamicol, Table 9, high purity derivatives (HPLC purified), I-125 labeled DRC140, P2 fractions, 3 hours at 37°C, unit inferred) turned out to be 0.5 nM.
In turn, `O[C@@H]1Cc2cccc(I)c2C[C@H]1N1CCN(c2ccccn2)CC1` (racemic) [DRE328, (±)-trans-5-iodo-2-hydroxy-3-[4-[2-pyridyl]-piperazinyl]tetralin] gave an IC50 on vesamicol receptors [2] of 38.4 nM.
`Cc1ccccc1N1CCN([C@@H]2Cc3c(I)cccc3C[C@H]2O)CC1` (racemic) [DRE334, (±)-trans-5-iodo-2-hydroxy-3-[4-[2-methylphenyl]piperazinyl]tetralin]: the IC50 at vesamicol receptors [1] (setting [3]) is 0.74 nM; at vesamicol receptors [2], 0.72 nM; at sigma receptors (setting [4]), 109 nM; at sigma receptors (setting [5]), 4480 nM.
As to `Cc1ccccc1N1CCN([C@@H]2Cc3cccc(I)c3C[C@H]2O)CC1` (racemic) [DRE335, (+)-trans-8-iodo-2-hydroxy-3-[4-[2-methylphenyl]piperazinyl]tetralin], at vesamicol receptors [2], the IC50 was determined as 2.8 nM.
For the molecule `Cc1ccc(C)c(N2CCN([C@@H]3Cc4c(I)cccc4C[C@H]3O)CC2)c1` (racemic) [DRE348, (±)-trans-5-iodo-2-hydroxy-3-[4-[2,5-dimethylphenyl]piperazinyl]tetralin], the IC50 came out at 1.16 nM on vesamicol receptors [1] (setting [3]), 0.78 nM at vesamicol receptors [2], 1500 nM on sigma receptors (setting [4]) and 5570 nM at sigma receptors (setting [5]).
Regarding `CCc1ccccc1N1CCN([C@@H]2Cc3c(I)cccc3C[C@H]2O)CC1` (racemic) [DRE353, (±)-trans-5-iodo-2-hydroxy-3-[4-[2-ethylphenyl]piperazinyl]tetralin], the IC50 on vesamicol receptors [1] (setting [3]) stood at 1.1 nM; at vesamicol receptors [2], 8.74 nM; at sigma receptors (setting [4]), 6900 nM; on sigma receptors (setting [5]), 5110 nM.
For `Cc1cccc(N2CCN([C@@H]3Cc4c(I)cccc4C[C@H]3O)CC2)c1C` (racemic) [DRE354, (±)-trans-5-iodo-2-hydroxy-3-[4-[2,3-dimethylphenyl]piperazinyl]tetralin] the same measures were 1.67 nM, 1.41 nM, 428 nM and 4560 nM.
Regarding `Cc1ccc(C)c(N2CCN([C@@H]3Cc4cc(I)ccc4C[C@H]3O)CC2)c1` (racemic) [DRE365, (±)-trans-6-iodo-2-hydroxy-3-[4-[2,5-dimethylphenyl]piperazinyl]tetralin], the IC50 at vesamicol receptors [2] was 2.9 nM.
Take `Cc1ccc(C)c(N2CCN([C@@H]3Cc4ccc(I)cc4C[C@H]3O)CC2)c1` (racemic) [DRE366, (±)-trans-7-iodo-2-hydroxy-3-[4-[2,5-dimethylphenyl]-piperazinyl]tetralin]: the IC50 is 0.88 nM at vesamicol receptors [1] (setting [3]), 1.14 nM at vesamicol receptors [2], 203 nM at sigma receptors (setting [4]) and 203 nM at sigma receptors (setting [5]).
As for `COc1ccc(C)c(N2CCN([C@@H]3Cc4c(I)cccc4C[C@H]3O)CC2)c1` (racemic) [DRE378, (±)-trans-5-iodo-2-hydroxy-3-[4-[5-methoxy-2-methylphenyl]piperazinyl]tetralin], the IC50 on vesamicol receptors [2] worked out at 5.09 nM.
In the case of `COc1ccccc1N1CCN([C@@H]2Cc3c(I)cccc3C[C@H]2O)CC1` (racemic) [DRF400, (±)-trans-5-iodo-2-hydroxy-3-[4-[2-methoxyphenyl]piperazinyl]tetralin], the values for the IC50 at vesamicol receptors [1] (setting [3]) and on sigma receptors (setting [5]) were 1.09 nM and 28800 nM, respectively.
For `CC(=O)Nc1ccccc1N1CCN([C@@H]2Cc3c(I)cccc3C[C@H]2O)CC1` (racemic) [DRF401, (±)-trans-5-iodo-2-hydroxy-3-[4-[N-acetyl-2-aminophenyl]-piperazinyl]tetralin], the IC50 at vesamicol receptors [1] (setting [3]) was determined as 0.89 nM.
For `Nc1ccccc1N1CCN([C@@H]2Cc3c(I)cccc3C[C@H]2O)CC1` (racemic) [DRF402, (±)-trans-5-iodo-2-hydroxy-3-[4-[2-aminophenyl]piperazinyl]tetralin], the IC50 at vesamicol receptors [1] (setting [3]) came out at 0.63 nM.
Regarding `Oc1ccccc1N1CCN([C@@H]2Cc3c(I)cccc3C[C@H]2O)CC1` (racemic) [DRF403, (±)-trans-5-iodo-2-hydroxy-3-[4-[2-hydroxyphenyl]piperazinyl]tetralin], the IC50 at vesamicol receptors [1] (setting [3]) amounted to 2.42 nM; on sigma receptors (setting [5]) it was 3030 nM.
As for `Nc1ccccc1N1CCN([C@@H]2Cc3cc(I)ccc3C[C@H]2O)CC1` (racemic) [DRG446, (±)-trans-6-iodo-2-hydroxy-3-[4-[2-aminophenyl]piperazinyl]tetralin], the IC50 on vesamicol receptors [1] (setting [3]) is 0.38 nM; at sigma receptors (setting [5]) it was 544 nM.
With `Cc1ccccc1N1CCN([C@@H]2Cc3c(I)cccc3C[C@H]2O)CC1` (single isomer, unassigned) [DRE341, (+)-trans-5-iodo-2-hydroxy-3-[4-[2-methylphenyl]piperazinyl]tetralin], on vesamicol receptors [1] (setting [3]), the IC50 is 1.96 nM.
Consider `Nc1ccccc1N1CCN([C@@H]2Cc3c(I)cccc3C[C@H]2O)CC1` (single isomer, unassigned) [DRF419, (-)-trans-5-iodo-2-hydroxy-3-[4-[2-aminophenyl]piperazinyl]tetralin], for which the IC50 at vesamicol receptors [1] (setting [3]) is 0.3 nM; on sigma receptors (setting [5]), 4710 nM.
`OC1CCCCC1N1CCC(c2ccccc2)CC1` (single isomer, unassigned; (+)) [(+)-Vesamicol, 2-(4-phenyl-piperidino)cyclohexanol, reference compound]: the IC50 at vesamicol receptors [1] (IC50 (nM) Average ± S.D) is greater than 5000 nM.
As to `COc1ccccc1N1CCN(CCCNc2c(C)c(=O)n(C)c(=O)n2C)CC1` [5-Methylurapidil, reference compound], the IC50 on vesamicol receptors [1] (IC50 (nM) Average ± S.D) is greater than 5000 nM.
The same measure, in the same setting: the value for `CC1=NN=C(c2ccc(N)cc2)c2cc3c(cc2C1)OCO3` [GYKI52466, reference compound] was greater than 5000 nM.
The same measure, in the same setting: the value for `CN(C(=O)Cc1ccc(Cl)c(Cl)c1)C(CN1CCCC1)c1cccc(OCC(=O)O)c1` (stereo not shown) [ICI204, 448, reference compound] was greater than 5000 nM.
Consider `COc1ccccc1N1CCN(CCCCN2C(=O)c3ccccc3C2=O)CC1` [NAN-190, reference compound], for which the IC50 on vesamicol receptors [1] (setting [6]) was greater than 5000 nM.
As to `CNC(=O)Oc1ccc2c(c1)[C@]1(C)CCN(C)[C@@H]1N2C` [Physostigmine, reference compound], at vesamicol receptors [1] (IC50 (nM) Average ± S.D), the IC50 is greater than 5000 nM.
Take `COC(=O)[C@H]1[C@H]2C[C@@H]3c4[nH]c5cc(OC)ccc5c4CCN3C[C@H]2C[C@@H](OC(=O)c2cc(OC)c(OC)c(OC)c2)[C@@H]1OC` [Reserpine, reference compound]: on vesamicol receptors [1] (setting [6]), the IC50 was greater than 5000 nM.
